Experimental data from patent publication US20240317758A1 (Halia Therapeutics, Inc., priority 2021, published 2024).

Tests used:
[1] = target: T1, full-length recombinant human NEK7 (Homo sapiens, UniProt Q8TDX7); test: NEK7 enzymatic assay; type: biochemical; details: recombinant human NEK7, casein substrate, radiolabelled ATP
T1 construct: full-length recombinant human NEK7; GST (N); purchased SignalChem NO9-10G; host or cells: Sf9 insect cells (baculovirus)
Method in brief: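 Full-length GST-tagged human NEK7 from Sf9 cells (assay concentration 70 nM) was used with casein (assay concentration 20 μM) in Hepes pH 7.5 buffer, 1% DMSO, and compound (3-fold dilutions, 10 μM to 0.5 nM) was preincubated 20 min at room temperature. Radiolabelled ATP was added for 2 h, phosphorylation was read on P81 paper, and IC50 was fitted from % activity remaining versus vehicle.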

IL-1β release = IL-1β release assay (THP-1 cells, PMA, LPS, nigericin); type: cell-based; details: Homo sapiens, LPS 250 ng/mL, nigericin 20 μM, cleaved IL-1β in media
Experimental: Approximately 1.5 million THP-1 cells were plated in each well of a 6-well TC plate and incubated with 40 nM PMA in RPMI (10% FBS, 1% Penstrep) for 24 hours. The media was then removed and cells were rested in RPMI (10% FBS, 1% Penstrep) for 24 hours after which time the media was removed and cells were pre-treated for 2 hours with various concentrations of compounds of interest (typically serial 3-fold dilution in RPMI+5% FBS, concentrations ranging from 1 μM to 0.5 nM) in RPMI (5% FBS). The media was again removed and cells were incubated with 250 ng/mL LPS and compounds of interest (concentrations as above) in RMPI (5% FBS) for 2 hours. The media was removed for a last time and cells were incubated with 20 μM nigericin and compounds of interest (concentrations as above) in Opti-MEM for 30 minutes. Cell media was then collected and the amount of cleaved IL-1β was determined using a JESS instrument (Protein Simple) and standard protocols. Cleaved Il-1β antibody was obtained from Cell Signaling (catalogue #83186S) and was used at 1:20 dilution in antibody diluent 2. Protein Simple 1× anti-Rabbit HRP secondary antibody was used along with Protein Simple luminol and peroxide for chemiluminescent detection. Primary antibody incubation time was increased from 30 minutes to 60 minutes.

T1 sequence (Q8TDX7 whole entry): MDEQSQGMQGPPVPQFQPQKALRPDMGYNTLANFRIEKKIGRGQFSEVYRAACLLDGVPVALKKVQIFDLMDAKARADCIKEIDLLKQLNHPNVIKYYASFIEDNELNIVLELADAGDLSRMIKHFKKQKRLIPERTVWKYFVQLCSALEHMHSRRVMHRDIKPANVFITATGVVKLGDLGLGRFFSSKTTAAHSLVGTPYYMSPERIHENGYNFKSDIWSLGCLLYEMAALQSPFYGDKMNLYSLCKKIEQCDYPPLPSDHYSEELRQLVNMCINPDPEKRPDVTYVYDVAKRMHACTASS

Row | SMILES | IC50 [1] | IC50 (IL-1β release)
1 | Nc1ncnc2c1c(-c1ccc(NC(=O)Nc3ccc(CN4CCN(CCS(=O)(=O)O)CC4)c(C(F)(F)F)c3)c(F)c1)cn2C1CC1 [Example I-100, 2-(4-(4-(3-(4-(4-amino-7-cyclopropyl-7H-pyrrolo[2,3-d]pyrimidin-5-yl)-2-fluorophenyl)ureido)-2-(trifluoromethyl)benzyl)piperazin-1-yl)ethane-1-sulfonic acid] | < 100 nM | > 1000 nM
2 | CC(=O)N1CCC(Oc2ccc(NC(=O)Nc3ccc(-c4cn(C5CC5)c5ncnc(N)c45)cc3F)cc2C(F)(F)F)CC1 [Example I-82, 1-(4-((1-acetylpiperidin-4-yl)oxy)-3-(trifluoromethyl)phenyl)-3-(4-(4-amino-7-cyclopropyl-7H-pyrrolo[2,3-d]pyrimidin-5-yl)-2-fluorophenyl)urea] | 100 to 500 nM | 250 to 1000 nM
3 | COCCn1nc(-c2ccc(NC(=O)Nc3ccc(CN4CCN(C)CC4)c(C(F)(F)F)c3)c(F)c2)c2c(N)ncnc21 [Example I-77, 1-(4-(4-amino-1-(2-methoxyethyl)-1H-pyrazolo[3,4-d]pyrimidin-3-yl)-2-fluorophenyl)-3-(4-((4-methylpiperazin-1-yl)methyl)-3-(trifluoromethyl)phenyl)urea] | < 100 nM | < 50 nM
4 | CN1CCN(Cc2ccc(NC(=O)Nc3ccc(-c4nn(CCO)c5ncnc(N)c45)cc3F)cc2C(F)(F)F)CC1 [Example I-76, 1-(4-(4-amino-1-(2-hydroxyethyl)-1H-pyrazolo[3,4-d]pyrimidin-3-yl)-2-fluorophenyl)-3-(4-((4-methylpiperazin-1-yl)methyl)-3-(trifluoromethyl)phenyl)urea] | < 100 nM | 50 to 250 nM
5 | Nc1ncnc2c1c(-c1ccc(NC(=O)Nc3ccc(CN4CCNCC45CC5)c(C(F)(F)F)c3)c(F)c1)cn2C1CC1 [Example I-66, 1-(4-((4,7-diazaspiro[2.5]octan-4-yl)methyl)-3-(trifluoromethyl)phenyl)-3-(4-(4-amino-7-cyclopropyl-7H-pyrrolo[2,3-d]pyrimidin-5-yl)-2-fluorophenyl)urea] | < 100 nM | 250 to 1000 nM
6 | CN1CCN(Cc2ccc(NC(=O)Nc3ccc(-c4nn(C5CC5)c5ncnc(N)c45)cc3F)cc2C(F)(F)F)CC1 [Example I-28, 1-(4-(4-amino-1-cyclopropyl-1H-pyrazolo[3,4-d]pyrimidin-3-yl)-2-fluorophenyl)-3-(4-((4-methylpiperazin-1-yl)methyl)-3-(trifluoromethyl)phenyl)urea] | < 100 nM | < 50 nM
7 | CC(=O)N1CCN(Cc2ccc(NC(=O)Nc3ccc(-c4cn(C5CC5)c5ncnc(N)c45)cc3F)cc2C(F)(F)F)CC1 [Example I-80, 1-(4-((4-acetylpiperazin-1-yl)methyl)-3-(trifluoromethyl)phenyl)-3-(4-(4-amino-7-cyclopropyl-7H-pyrrolo[2,3-d]pyrimidin-5-yl)-2-fluorophenyl)urea] | 100 to 500 nM | > 1000 nM
8 | CN1CCN(Cc2ccc(NC(=O)Nc3ccc(-c4cn(C5CC5)c5ncnc(N)c45)cc3F)c(C(F)(F)F)c2)CC1 [Example I-16, 1-(4-(4-amino-7-cyclopropyl-7H-pyrrolo[2,3-d]pyrimidin-5-yl)-2-fluorophenyl)-3-(4-((4-methylpiperazin-1-yl)methyl)-2-(trifluoromethyl)phenyl)urea] | > 2000 nM | > 1000 nM
9 | CN1CCN(Cc2ccc(NC(=O)Nc3ccc(-c4cn(C5CCN(S(C)(=O)=O)CC5)c5ncnc(N)c45)cc3F)cc2C(F)(F)F)CC1 [Example I-101, 1-(4-(4-amino-7-(1-(methylsulfonyl)piperidin-4-yl)-7H-pyrrolo[2,3-d]pyrimidin-5-yl)-2-fluorophenyl)-3-(4-((4-methylpiperazin-1-yl)methyl)-3-(trifluoromethyl)phenyl)urea] | < 100 nM | 50 to 250 nM
